The term IC50 denotes the concentration that inhibits the measured activity by half.

The values below come from US8030547B2, “Gene coding for acetolactate synthase” (priority 2002, dated 2011).

Several values for one entry are separate records, joined by “and”; a condition that tells them apart may be missing. Equal entries are not always repeated.

What all share (assay type): biochemical, rice (Oryza sativa var. Kinmaze)
The target in assay [1] is T1, GST fusion R172S mutant ALS protein (Oryza sativa subsp. japonica, UniProt Q6K2E8, R172S).
T1 construct: an expression vector having the full-length wild type ALS cDNA incorporated into the Eco RI site of pGEX-2T; made in house; host or cells: E. coli JM109, pGEX-2T(ALS R172S mutant); crude supernatant
Briefly: Herbicide sensitivity of ALS protein expressed in E. coli (crude enzyme solution), R172S. As to conditions: for RS ratio: R172S mutant vs wild type. The procedure: (§1) ALS activity resulting from the mutant ALS protein contained in the eluted fractions apportioned into each test tube for apportioning was measured as follows. A reaction solution to be used in a measurement reaction was prepared by mixing an eluted fraction to be measured with a solution comprising 20 mM sodium pyruvate, 0.5 mM TPP, 0.5 mM MgCl2, 10 μM FAD and 20 mM potassium phosphate buffer (pH 7.5). One ml of this reaction solution was used. After the eluted fraction to be measured was added, the measurement reaction was performed at 30° C. for 40 to 60 minutes. Then, the reaction was stopped by addition of 0.1 ml of 6N sulfuric acid (or 0.25 N sodium hydroxide).
(§2) After the reaction was stopped, the reaction solution was incubated at 60° C. for 10 minutes, thereby converting acetolactate contained in the reaction solution to acetoin.
(§3) Then, to quantify acetoin contained in the reaction solution, 1 ml of 0.5% (w/v) creatine and 1 ml of 5% (w/v) α-naphthol dissolved in 2.5 N sodium hydroxide was added to the reaction solution, followed by incubation at 37° C. for 10 minutes. Acetoin was then quantified by color comparison of the absorbance (at 525 nm) of the reaction solution, thereby evaluating ALS activity. In addition, since the reaction solution contained a small amount of sodium pyruvate, reaction time 0 was used as control.
(§4) E. coli transformed with pGEX-2T(ALS-wild) constructed in Example 3(5), E. coli transformed with pGEX-2T(ALS-W548L mutant) constructed in Example 5, E. coli transformed with pGEX-2T(ALS-S627I mutant) constructed in Example 5, E. coli transformed with pGEX-2T(ALS P171H mutant) constructed in Example 6, E. coli transformed with pGEX-2T(ALS R172S mutant) constructed in Example 6, E. coli transformed with pGEX-2T(ALS P171H, R172S mutant) constructed in Example 7, E. coli transformed with pGEX-2T(ALS-P171H, W548L mutant) constructed in Example 8, E. coli transformed with pGEX-2T(ALS-P171H, S627I mutant) constructed in Example 8, and E. coli transformed with pGEX-2T(ALS-P171H, W548L, S627I mutant) constructed in Example 9 were respectively shake-cultured (pre-culture) at 27° C. in 2 ml of LB liquid medium containing ampicillin. These types of E. coli were respectively cultured in 250 ml of LB liquid medium containing ampicillin using 1 ml of the pre-culture solution. After culturing overnight, 1 mM IPTG was added to the media, and then culturing was performed for a further 3 to 4 hours, so that the expression of GST fusion protein was induced. In addition, the cells were stored at −80° C. after washing.
(§5) Preparation and purification of ALS from E. coli were performed by the following method. First, the pellet of the transformant E. coli stored at −80° C. was suspended in ALS extraction buffer (potassium phosphate buffer (pH 7.5) containing 30% glycerol and 0.5 mM MgCl2). Specifically, 2.5 ml of the buffer was added to the pellet obtained from 50 ml of the culture solution. The suspension was subjected to ultrasonication (Heat Systems-Ultrasonics, Sonicator W-225R, micro chip, output control 8, interval of approximately 1 second, twice (40 seconds each)), and subjected to centrifugation at 15000×g, 4° C. for 20 minutes, thereby obtaining the supernatant as a crude enzyme solution.
(§6) Herbicide sensitivity of the wild type ALS protein and that of mutant ALS protein were examined using the 9 types of crude enzyme solutions obtained in Example 10. Herbicide sensitivity test was performed according to procedures almost the same as those in Example 2. However, in this example, reaction temperature was 37° C., reaction time was 30 minutes, and 10 mM valine was added to the reaction solution to inhibit ALS activity derived from E. coli. Further, three types of herbicides, bispyribac-sodium, pyrithiobac-sodium, and pyriminobac, were used as PC herbicides; chlorsulfuron was used as a sulfonylurea herbicide; and imazaquin was used as an imidazolinon herbicide. […]

In assay [2] the target is T2, GST fusion P171H/S627I mutant ALS protein (Oryza sativa subsp. japonica, UniProt Q6K2E8, P171H/S627I).
T2 construct: made in house; host or cells: E. coli, pGEX-2T(ALS-P171H, S627I mutant); crude supernatant
Briefly: Herbicide sensitivity of ALS protein expressed in E. coli (crude enzyme solution), P171H/S627I. The settings on record: for RS ratio/ predicted RS ratio / Predicted RS ratio: P171H/S627I mutant; for RS ratio: P171H/S627I mutant vs wild type; for Predicted RS ratio: product of RS ratios of the 1-point mutants. As for the experimental part:
as §1, §2, §3, §4, §5, §6

In assay [3] the target is T3, GST fusion P171H/W548L mutant ALS protein (Oryza sativa subsp. japonica, UniProt Q6K2E8, P171H/W548L).
T3 construct: made in house; host or cells: E. coli, pGEX-2T(ALS-P171H, W548L mutant); crude supernatant
Briefly: Herbicide sensitivity of ALS protein expressed in E. coli (crude enzyme solution), P171H/W548L. As to conditions: for RS ratio: P171H/W548L mutant vs wild type; for Predicted RS ratio / RS ratio/ predicted RS ratio: P171H/W548L mutant; for Predicted RS ratio: product of RS ratios of the 1-point mutants; for inhibition at 100 µM: read-out: inhibition % at the highest concentration among the concentrations tested, P171H/W548L mutant, in 100 μM. The procedure:
as §1, §2, §3, §4, §5, §6

T3 sequence (Q6K2E8 44-644 P171H/W548L): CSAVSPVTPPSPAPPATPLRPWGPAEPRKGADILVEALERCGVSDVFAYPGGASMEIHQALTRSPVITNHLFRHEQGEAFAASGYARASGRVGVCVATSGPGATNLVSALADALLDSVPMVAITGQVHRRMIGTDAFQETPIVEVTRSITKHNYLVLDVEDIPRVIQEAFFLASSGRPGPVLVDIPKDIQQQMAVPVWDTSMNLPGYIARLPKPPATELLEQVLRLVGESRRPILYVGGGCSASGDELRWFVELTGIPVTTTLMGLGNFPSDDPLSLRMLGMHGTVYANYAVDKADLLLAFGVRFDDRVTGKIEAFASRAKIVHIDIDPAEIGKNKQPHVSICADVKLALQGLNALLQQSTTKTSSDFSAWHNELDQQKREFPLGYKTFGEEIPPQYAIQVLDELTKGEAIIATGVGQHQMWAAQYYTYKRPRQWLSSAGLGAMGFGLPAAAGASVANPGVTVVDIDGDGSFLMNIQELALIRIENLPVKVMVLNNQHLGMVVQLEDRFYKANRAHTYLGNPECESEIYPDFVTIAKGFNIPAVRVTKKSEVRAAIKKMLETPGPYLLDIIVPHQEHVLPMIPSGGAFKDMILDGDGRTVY
T1 sequence (Q6K2E8 44-644 R172S): as the sequence (Q6K2E8 44-644 P171H/W548L) above, with H128P, R129S, L505W counted along it
T2 sequence (Q6K2E8 44-644 P171H/S627I): as the sequence (Q6K2E8 44-644 P171H/W548L) above, with L505W, S584I counted along it

With `CC(C)C1(C)N=C(c2nc3ccccc3cc2C(=O)O)NC1=O` (centres unmarked) [imazaquin], in assay [1], the IC50 came to 2300 nM; the RS ratio is 0.98 and 1. Further, in assay [2], the IC50 turned out to be 71 µM, the “RS ratio/ predicted RS ratio” value is 3.2, the RS ratio is 32 and the “Predicted RS ratio” value is reported as 10. Besides, in assay [3], the RS ratio is on record as greater than 45, the “Predicted RS ratio” value is greater than 68 and the inhibition at 100 µM stood at 13%.
With `COc1nc(C)nc(NC(=O)NS(=O)(=O)c2ccccc2Cl)n1` [chlorsulfuron], in assay [1], the IC50 is 11 nM and the RS ratio came to 0.85. For the same compound, in assay [2], the IC50 came to 9.9 µM, the “RS ratio/ predicted RS ratio” value is on record as 3.8, the RS ratio was 760 and the “Predicted RS ratio” value was 200. Moreover, in assay [3], the “RS ratio/ predicted RS ratio” value was greater than 0.18, the RS ratio is reported as greater than 7700, the “Predicted RS ratio” value is recorded as 65000 and the inhibition at 100 µM turned out to be 16%.
Regarding `COc1cc(OC)nc(Oc2cccc(Oc3nc(OC)cc(OC)n3)c2C(=O)O)n1` [bispyribac-sodium], in assay [1], the IC50 stood at 6.2 nM and the RS ratio was 0.98. Besides, in assay [2], the IC50 came to 23 µM, the “RS ratio/ predicted RS ratio” value is 10, the RS ratio was found to be 3700 and the “Predicted RS ratio” value is recorded as 360. Moreover, in assay [3], the “RS ratio/ predicted RS ratio” value is listed as greater than 3.3, the RS ratio is greater than 15000, the “Predicted RS ratio” value is on record as 4500 and the inhibition at 100 µM came to 5%.
